Measurements taken from the NIST ThermoML archive (doi:10.1021/je900407u).

Test: isobaric coefficient of expansion
Details: Liquid, Micro DSCII

CCCCn1cc[n+](C)c1.F[B-](F)(F)F [1-butyl-3-methylimidazolium tetrafluoroborate]
isobaric coefficient of expansion
Details | 5000 kPa | 10000 kPa | 15000 kPa | 20000 kPa | 25000 kPa | 30000 kPa | 35000 kPa | 40000 kPa | 45000 kPa | 50000 kPa
278.15 K | 0.000605 1/K | 0.0006 1/K | 0.000592 1/K | 0.000586 1/K | 0.000581 1/K | 0.000575 1/K | 0.000571 1/K | 0.000564 1/K | 0.000559 1/K | 0.000553 1/K
288.15 K | 0.000598 1/K | 0.000592 1/K | 0.000587 1/K | 0.000582 1/K | 0.000577 1/K | 0.00057 1/K | 0.000566 1/K | 0.000557 1/K | 0.000555 1/K | 0.000553 1/K
298.15 K | 0.000594 1/K | 0.00059 1/K | 0.000581 1/K | 0.000575 1/K | 0.000571 1/K | 0.000563 1/K | 0.000558 1/K | 0.000552 1/K | 0.000547 1/K | 0.000545 1/K
308.15 K | 0.000588 1/K | 0.00058 1/K | 0.000575 1/K | 0.000569 1/K | 0.000561 1/K | 0.000557 1/K | 0.00055 1/K | 0.000547 1/K | 0.000542 1/K | 0.000535 1/K
318.15 K | 0.00058 1/K | 0.000577 1/K | 0.00057 1/K | 0.000561 1/K | 0.000558 1/K | 0.000552 1/K | 0.000547 1/K | 0.000543 1/K | 0.000536 1/K | 0.000532 1/K
328.15 K | 0.000576 1/K | 0.00057 1/K | 0.000563 1/K | 0.000559 1/K | 0.000551 1/K | 0.000544 1/K | 0.000541 1/K | 0.000534 1/K | 0.000528 1/K | 0.000523 1/K
338.15 K | 0.000571 1/K | 0.000566 1/K | 0.000561 1/K | 0.000552 1/K | 0.000547 1/K | 0.000543 1/K | 0.000536 1/K | 0.000531 1/K | 0.000526 1/K | 0.000522 1/K
348.15 K | 0.000569 1/K | 0.000566 1/K | 0.000557 1/K | 0.000552 1/K | 0.000545 1/K | 0.000539 1/K | 0.000535 1/K | 0.000528 1/K | 0.000524 1/K | 0.00052 1/K
